pIC50: −log10 of the molar value. Read-outs that look alike come from different tables or passages of the source.
How the values were obtained:
[1] = target: T1, Progesterone Receptor (Oryctolagus cuniculus, UniProt P06186); experiment: Binding to progesterone receptor, uterus cytosol, tracer 3H-ORG 2058; settings: rabbit uterus cytosol, 0–4° C., 18 h, Progesterone=100%
T1 construct: Biological material: Uterus cytosol, rabbit, pressed; from tissue; host or cells: rabbit uterus cytosol
T1 sequence (P06186 1-930): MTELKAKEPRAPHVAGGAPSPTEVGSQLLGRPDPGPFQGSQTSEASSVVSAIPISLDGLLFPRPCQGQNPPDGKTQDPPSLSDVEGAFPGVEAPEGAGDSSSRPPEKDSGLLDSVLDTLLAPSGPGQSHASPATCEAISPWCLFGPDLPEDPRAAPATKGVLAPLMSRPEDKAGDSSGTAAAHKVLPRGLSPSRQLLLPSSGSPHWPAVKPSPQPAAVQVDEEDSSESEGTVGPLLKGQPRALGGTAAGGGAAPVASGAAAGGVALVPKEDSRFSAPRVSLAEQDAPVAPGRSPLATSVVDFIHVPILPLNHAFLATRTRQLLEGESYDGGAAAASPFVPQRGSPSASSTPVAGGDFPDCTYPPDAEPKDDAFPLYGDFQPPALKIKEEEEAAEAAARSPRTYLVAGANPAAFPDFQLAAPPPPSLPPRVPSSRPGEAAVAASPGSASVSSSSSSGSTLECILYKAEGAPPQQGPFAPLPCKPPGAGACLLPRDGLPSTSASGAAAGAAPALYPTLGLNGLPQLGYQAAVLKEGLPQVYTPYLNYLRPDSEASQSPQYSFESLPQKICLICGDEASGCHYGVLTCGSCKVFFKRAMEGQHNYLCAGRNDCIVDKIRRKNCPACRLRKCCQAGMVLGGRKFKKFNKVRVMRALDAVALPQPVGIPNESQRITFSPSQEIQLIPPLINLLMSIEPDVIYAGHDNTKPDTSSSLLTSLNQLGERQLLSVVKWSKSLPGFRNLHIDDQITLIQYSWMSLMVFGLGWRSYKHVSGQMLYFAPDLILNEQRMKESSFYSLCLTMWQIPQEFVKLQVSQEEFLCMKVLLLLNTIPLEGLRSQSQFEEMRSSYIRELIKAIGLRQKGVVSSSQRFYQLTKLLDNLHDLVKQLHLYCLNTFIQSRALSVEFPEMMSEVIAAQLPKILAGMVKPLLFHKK
Description: Binding of Compound I to Progesterone Receptor

[2] = target: T2, 5α-reductase-Type-2 (Homo sapiens, UniProt P31213); experiment: 5α-reductase-Type-2 activity in genital skin homogenates; type: biochemical; settings: optimum conditions at pH=5.5
T2 construct: Under optimum conditions at pH=5.5 in genital skin homogenates; from tissue; host or cells: genital skin homogenates
T2 sequence (P31213 1-254): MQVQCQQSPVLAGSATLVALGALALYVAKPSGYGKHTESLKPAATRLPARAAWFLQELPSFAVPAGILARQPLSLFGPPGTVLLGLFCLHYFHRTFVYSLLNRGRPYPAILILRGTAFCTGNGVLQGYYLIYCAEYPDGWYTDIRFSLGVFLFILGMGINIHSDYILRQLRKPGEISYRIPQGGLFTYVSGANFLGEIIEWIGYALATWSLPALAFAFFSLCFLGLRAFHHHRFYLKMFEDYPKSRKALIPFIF
Description: Subsequently experimental data for progesterone receptor binding, 5α-reductase-type-2 activity in genital skin homogenates and in vivo data in the case of the exemplary compound of the invention, (E)-17α-fluoro-3-oxo-estra-4-en-17β-carbaldehyde oxime, are reported here.

[3] = target: T3, PR-B (Homo sapiens, UniProt P06401); experiment: PR-B antagonisms and agonisms; type: cell-based
T3 sequence (P06401 1-933): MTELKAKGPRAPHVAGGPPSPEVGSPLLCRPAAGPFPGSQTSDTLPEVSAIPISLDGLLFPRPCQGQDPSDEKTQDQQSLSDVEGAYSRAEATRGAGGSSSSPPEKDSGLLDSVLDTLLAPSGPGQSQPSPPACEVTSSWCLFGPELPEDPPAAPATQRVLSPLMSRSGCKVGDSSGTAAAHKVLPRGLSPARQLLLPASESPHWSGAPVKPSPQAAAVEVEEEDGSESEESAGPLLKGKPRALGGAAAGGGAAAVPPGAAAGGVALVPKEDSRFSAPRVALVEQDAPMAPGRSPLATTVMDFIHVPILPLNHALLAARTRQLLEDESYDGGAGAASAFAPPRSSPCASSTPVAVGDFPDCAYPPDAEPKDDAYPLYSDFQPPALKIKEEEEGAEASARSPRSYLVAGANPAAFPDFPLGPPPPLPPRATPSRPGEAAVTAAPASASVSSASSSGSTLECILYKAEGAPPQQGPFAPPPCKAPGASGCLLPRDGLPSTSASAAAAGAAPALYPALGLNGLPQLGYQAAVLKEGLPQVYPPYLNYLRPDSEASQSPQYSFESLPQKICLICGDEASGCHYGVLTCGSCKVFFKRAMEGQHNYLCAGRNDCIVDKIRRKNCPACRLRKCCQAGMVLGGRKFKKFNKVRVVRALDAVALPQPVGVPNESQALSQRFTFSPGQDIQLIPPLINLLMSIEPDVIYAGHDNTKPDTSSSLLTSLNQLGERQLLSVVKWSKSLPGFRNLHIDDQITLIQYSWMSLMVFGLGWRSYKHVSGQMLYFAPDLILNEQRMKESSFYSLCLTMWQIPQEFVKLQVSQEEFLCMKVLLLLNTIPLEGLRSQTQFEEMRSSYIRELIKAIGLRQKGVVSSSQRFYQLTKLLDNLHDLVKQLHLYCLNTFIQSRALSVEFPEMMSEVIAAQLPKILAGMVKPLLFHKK

[4] = tested on: pregnancy maintenance; experiment: Gestagen activity in pregnancy maintenance test; type: in vivo; settings: mouse

| Relative Binding affinity RBA [1] | SMILES | pIC50 [2] | pIC50 ([3]; PR-B agonism, read-out: Agonism IC50) | pIC50 ([3]; PR-B antagonism, read-out: Antagonism IC50) | Rate of Maintained Gravidity ([4]; dosage 0.003 Mg/animal/day) | Rate of Maintained Gravidity ([4]; dosage 0.03 Mg/animal/day) | Rate of Maintained Gravidity ([4]; dosage 0.3 Mg/animal/day) |
| --- | --- | --- | --- | --- | --- | --- | --- |
| 100% | CC(=O)[C@H]1CC[C@H]2[C@@H]3CCC4=CC(=O)CC[C@]4(C)[C@H]3CC[C@]12C [Progesterone] |  |  |  |  |  |  |
|  | C[C@]12CCC3C4CCC(=O)C=C4CCC3C1CC[C@]2(F)/C=N/O (stereo partly drawn) [Compound 7, (E)-17α-fluoro-3-oxo-estra-4-en-17β-carbaldehyde oxime] | 6.61 | 9.60 | 9.47 | 0/3 | 2/2 | 3/3 |

— US7199115B2, “17α-fluorosteroids, pharmaceutical compositions containing 17α-fluorosteroids and a method of making them” (Schering AG, priority 2004, dated 2007)
